Measurements as given in US10543223B2, “Mannose derivatives useful for treating pathologies associated with adherent E. coli” (ENTEROME, priority 2015, dated 2020).
Several values for one entry are separate records, joined by “and”; a condition that tells them apart may be missing. Identical values can stand only once. Like-named read-outs stand apart in the source and are kept apart here.

Legend:
[1] = Faeces concentrations and recovery after IV and PO administration to rats; assay type: in vivo, Sprague Dawley rats; conditions: 0-24 h; for dose excreted: Sprague Dawley, rat, faeces
Description: Plasma and faeces concentrations after administration of Compound 1b and for compound 13 of WO 2014/016361 at 1 mg/kg by intravenous route and 10 mg/kg by oral route to Sprague Dawley rats Blank rat faeces are homogenized with 3 volumes of UHQ water until obtention of a paste. Then 100 μL of the homogenate are spiked with the molecules and precipitated with 300 μL of acetonitrile. The concentration ranges tested are: • 0.5 ng/mL to 1000 ng/mL for plasma, • 4 to 2000 ng/g for faeces, corresponding to 1 to 500 ng/mL of faeces homogenate. 3. In-Life Part After administration, the animals are placed in individual metabolic cages in order to collect faeces samples during 24 hours. Faeces samples are collected over the 24 hours of the experiment. They are precisely weighed and 3 volumes of UHQ water are added. The mixture is homogeneized until obtention of a paste. Then 100 μL of the homogenate are taken and extracted with 300 μL of Acetonitrile. Analysis is performed using LC-MS/MS determination according to previous analytical test results.

[2] = Plasma concentrations and pharmacokinetics after IV and PO administration to rats; assay type: in vivo, Sprague Dawley rats; conditions: for % AUCextra / AUC(0-inf) / AUC(0-t) / Cmax / Tmax: DMSO, based on mean data
Description: Plasma and faeces concentrations after administration of Compound 1b and for compound 13 of WO 2014/016361 at 1 mg/kg by intravenous route and 10 mg/kg by oral route to Sprague Dawley rats
At least 8 point calibration standards are run using standard conditions which consist to LC-MS/MS system with C18 column after precipitation of proteins with acetonitrile before the start of the analytical test.
For the plasma, 100 μL of blank rat plasma are directly spiked with the compounds before being precipitate with 300 μL of acetonitrile.
The concentration ranges tested are: • 0.5 ng/mL to 1000 ng/mL for plasma, • 4 to 2000 ng/g for faeces, corresponding to 1 to 500 ng/mL of faeces homogenate. 3. In-Life Part
12 male Sprague Dawley rats around 6-7 week old are used.
At prescribed times, blood is collected. Animals are briefly anaesthetised with Isoflurane® using an anaesthetic system (Équipement Vétérinaire Minerve) during blood samplings.
Blood samples are centrifuged at 2500 rpm at +4° C. (between 0 and 9° C.), the plasma is removed and placed into labelled polypropylene tubes. Individual plasma samples are stored frozen at −20° C. (target temperature) until analysis.
100 μL of the plasma sample are taken and 300 μL of acetonitrile are added. After protein precipitation, analysis is performed using LC-MS/MS determination according to previous analytical test results.
Concentrations of the samples are calculated directly from chromatograms after automatic integration by Analyst® 1.5.1 and expressed as ng/mL.
Mean plasma concentrations are calculated (when calculable, i.e. n≥2) using individual concentration and are expressed with the corresponding standard deviation value and variation coefficient (when calculable, i.e. n≥3), with
[formula] The individual plasma concentrations are tabulated for each rat and scheduled sampling time. Concentrations below the LLOQ are indicated by BLQ. All BLQ concentrations are substituted by zero for calculation of the descriptive statistics of the concentrations. 5. Results Estimation of pharmacokinetics parameters is performed using Kinetica® (Version 4.3—Thermo Electron Corporation—Philadelphia—USA). It was performed by using a one-compartment model approach, which considers the body as a single compartment in which the concentration is homogeneous. The following parameters are estimated: Cmax (ng/mL): maximal plasma concentration Tmax (h): first time to reach Cmax AUCt (ng/mL*h): area under the plasma concentration-time curve from administration up to the last quantifiable concentration at time t
[formula] “BLQ” stands for “Below the Limit of Quantification” ([…] for plasma). Compound 1b

[3] = IV 1 mg/kg, individual rats IV1-IV3, 1 mg/kg
[4] = PO 10 mg/kg, individual rats PO4-PO6, 10 mg/kg
[5] = male, Sprague Dawley, rat, plasma, IV 1 mg/kg
[6] = male, Sprague Dawley, rat, plasma, PO 10 mg/kg

Compound: Cc1nc(-c2cnccn2)sc1C(=O)c1cnc(N[C@H]2O[C@H](CO)[C@@H](O)[C@H](O)[C@@H]2O)s1 [13 of WO 2014/016361]
- Faeces concentration [1, 3]: 3303 ng/g and 3130 ng/g and 3346 ng/g
- Faeces concentration (homogenate) [1, 3]: 826 ng/mL and 783 ng/mL and 836 ng/mL
- Recovery in faeces [1, 3]: 10.9% and 15.9%
- Total amount of compound in faeces [1, 3]: 30095 ng and 28426 ng and 38053 ng
- Faeces concentration (homogenate), mean ([1]; IV 1 mg/kg, mean of 3 rats): 815 ng/mL
- Faeces concentration, mean ([1]; IV 1 mg/kg, mean of 3 rats): 3260 ng/g
- Total amount of compound in faeces, mean ([1]; IV 1 mg/kg, mean of 3 rats): 32191 ng
- Faeces concentration [1, 4]: 103917 ng/g and 165663 ng/g and 132537 ng/g
- Faeces concentration (homogenate) [1, 4]: 25979 ng/mL and 41416 ng/mL and 33134 ng/mL
- Recovery in faeces [1, 4]: 57.9% and 49.3%
- Total amount of compound in faeces [1, 4]: 1203583 ng and 1389086 ng and 1183679 ng
- Faeces concentration (homogenate), mean ([1]; PO 10 mg/kg, mean of 3 rats): 33510 ng/mL
- Faeces concentration, mean ([1]; PO 10 mg/kg, mean of 3 rats): 134039 ng/g
- Total amount of compound in faeces, mean ([1]; PO 10 mg/kg, mean of 3 rats): 1258783 ng
- dose excreted ([1]; iv, 1 mg/kg, IV 1 mg/kg, individual rats IV1-IV3, read-out: Recovery in faeces): 13.1%
- dose excreted ([1]; iv, 1 mg/kg, IV 1 mg/kg, mean of 3 rats, read-out: Recovery in faeces, mean): 13.3%
- dose excreted ([1]; po, 10 mg/kg, PO 10 mg/kg, individual rats PO4-PO6, read-out: Recovery in faeces): 50.1%
- Plasma concentration ([2]; IV 1 mg/kg, 0.083 h, individual rats IV1-IV3, 1 mg/kg): 1451.7 ng/mL and 1443.6 ng/mL
- Plasma concentration ([2]; IV 1 mg/kg, 0.5 h, individual rats IV1-IV3, 1 mg/kg): 67.6 ng/mL and 58.5 ng/mL
- Plasma concentration ([2]; IV 1 mg/kg, 2 h, individual rats IV1-IV3, 1 mg/kg): 1.6 ng/mL and 1.8 ng/mL
- Plasma concentration ([2]; IV 1 mg/kg, 6 h, individual rats IV1-IV3): BLQ
- Plasma concentration ([2]; IV 1 mg/kg, 24 h, individual rats IV1-IV3): BLQ
- % AUCextra ([2]; IV 1 mg/kg): 0.11%
- Plasma concentration ([2]; PO 10 mg/kg, 0.5 h, individual rats PO4-PO6, 10 mg/kg): 10.9 ng/mL and 7.0 ng/mL
- Plasma concentration ([2]; PO 10 mg/kg, 1 h, individual rats PO4-PO6, 10 mg/kg): 4.6 ng/mL and 5.4 ng/mL
- Plasma concentration ([2]; PO 10 mg/kg, 2 h, individual rats PO4-PO6, 10 mg/kg): 2.3 ng/mL and 2.0 ng/mL
- Plasma concentration ([2]; PO 10 mg/kg, 6 h, individual rats PO4-PO6, 10 mg/kg): 1.9 ng/mL and 1.6 ng/mL
- Plasma concentration ([2]; PO 10 mg/kg, 24 h, individual rats PO4-PO6): BLQ
- % AUCextra ([2]; PO 10 mg/kg): 32.3%
- concentration at 0.083 h ([2]; male, Sprague Dawley, rat, plasma, iv, 1 mg/kg, IV 1 mg/kg, 0.083 h, individual rats IV1-IV3, read-out: Plasma concentration): 1130 ng/mL
- concentration at 0.083 h ([2]; male, Sprague Dawley, rat, plasma, iv, 1 mg/kg, IV 1 mg/kg, 0.083 h, mean of 3 rats (BLQ = 0), read-out: Plasma concentration, mean): 1340 ng/mL
- concentration at 0.5 h ([2]; male, Sprague Dawley, rat, plasma, iv, 1 mg/kg, IV 1 mg/kg, 0.5 h, individual rats IV1-IV3, read-out: Plasma concentration): 56.1 ng/mL
- concentration at 0.5 h ([2]; male, Sprague Dawley, rat, plasma, iv, 1 mg/kg, IV 1 mg/kg, 0.5 h, mean of 3 rats (BLQ = 0), read-out: Plasma concentration, mean): 60.8 ng/mL
- concentration at 2 h ([2]; male, Sprague Dawley, rat, plasma, iv, 1 mg/kg, IV 1 mg/kg, 2 h, individual rats IV1-IV3, read-out: Plasma concentration): 1.6 ng/mL
- concentration at 2 h ([2]; male, Sprague Dawley, rat, plasma, iv, 1 mg/kg, IV 1 mg/kg, 2 h, mean of 3 rats (BLQ = 0), read-out: Plasma concentration, mean): 1.6 ng/mL
- concentration at 6 h ([2]; male, Sprague Dawley, rat, plasma, iv, 1 mg/kg, IV 1 mg/kg, 6 h, mean of 3 rats (BLQ = 0), read-out: Plasma concentration, mean): 0 ng/mL
- concentration at 24 h ([2]; male, Sprague Dawley, rat, plasma, iv, 1 mg/kg, IV 1 mg/kg, 24 h, mean of 3 rats (BLQ = 0)): 0 ng/mL
- concentration at 0.5 h ([2]; male, Sprague Dawley, rat, plasma, po, 10 mg/kg, PO 10 mg/kg, 0.5 h, individual rats PO4-PO6, read-out: Plasma concentration): 5.5 ng/mL
- concentration at 0.5 h ([2]; male, Sprague Dawley, rat, plasma, po, 10 mg/kg, PO 10 mg/kg, 0.5 h, mean of 3 rats (BLQ = 0), read-out: Plasma concentration, mean): 7.8 ng/mL
- concentration at 1 h ([2]; male, Sprague Dawley, rat, plasma, po, 10 mg/kg, PO 10 mg/kg, 1 h, individual rats PO4-PO6, read-out: Plasma concentration): 3.3 ng/mL
- concentration at 1 h ([2]; male, Sprague Dawley, rat, plasma, po, 10 mg/kg, PO 10 mg/kg, 1 h, mean of 3 rats (BLQ = 0), read-out: Plasma concentration, mean): 4.4 ng/mL
- concentration at 2 h ([2]; male, Sprague Dawley, rat, plasma, po, 10 mg/kg, PO 10 mg/kg, 2 h, individual rats PO4-PO6, read-out: Plasma concentration): 1.9 ng/mL
- concentration at 2 h ([2]; male, Sprague Dawley, rat, plasma, po, 10 mg/kg, PO 10 mg/kg, 2 h, mean of 3 rats (BLQ = 0), read-out: Plasma concentration, mean): 2 ng/mL
- concentration at 6 h ([2]; male, Sprague Dawley, rat, plasma, po, 10 mg/kg, PO 10 mg/kg, 6 h, individual rats PO4-PO6, read-out: Plasma concentration): 1.7 ng/mL
- concentration at 6 h ([2]; male, Sprague Dawley, rat, plasma, po, 10 mg/kg, PO 10 mg/kg, 6 h, mean of 3 rats (BLQ = 0), read-out: Plasma concentration, mean): 1.7 ng/mL
- concentration at 24 h ([2]; male, Sprague Dawley, rat, plasma, po, 10 mg/kg, PO 10 mg/kg, 24 h, mean of 3 rats (BLQ = 0)): 0 ng/mL
- AUC(0-inf) [2, 5]: 452 ng·h/mL
- AUC(0-t) [2, 5]: 451 ng·h/mL
- Cmax [2, 5]: 1340 ng/mL
- Tmax [2, 5]: 4.8 min
- bioavailability ([2]; male, Sprague Dawley, rat, plasma, PO 10 mg/kg vs IV 1 mg/kg, calculated based on AUCt, read-out: F (bioavailability)): 0.3%
- AUC(0-t) [2, 6]: 16 ng·h/mL
- Cmax [2, 6]: 7.79 ng/mL
- Tmax [2, 6]: 30 min
- AUC(0-inf) ([2]; male, Sprague Dawley, rat, plasma, PO 10 mg/kg, % AUC extra >20%: value given for indication): 23.3 ng·h/mL
